# From patent US9260415B2, “Heteroaryl pyridone and aza-pyridone compounds with electrophilic functionality” (Genentech, Inc., priority 2013, dated 2016)
# Target: BTK (Homo sapiens (Human), UniProt Q06187)
# Assay: BTK LC3K biochemical assay (LabChip 3000 mobility shift)
# Procedure: Formula I compounds were tested by biochemical Btk, Kinase assays (Example 901).
# Alternatively, an in vitro BTK biochemical assay that quantifies BTK-catalyzed tyrosine phosphorylation of a synthetic peptide, as detected using a LabChip 3000® microfluidic mobility shift instrument (PerkinElmer; Waltham, Mass.) can be conducted. The substrate peptide, ProfilerPro® FL-Peptide 22 (Product No. 760366; PerkinElmer), has an amino-terminal fluorescent 5-carboxyfluorescein group (5-FAM) and a tyrosine residue that can be phosphorylated by BTK: 5-FAM-[…]-NH2. Purified recombinant human full-length catalytically active BTK protein was obtained from Carna Biosciences (Product No. 08-080; Kobe, Japan).
# BTK assay mixtures contained 50 mM 4-(2-hydroxyethyl)-1-piperazineethanesulfonic acid buffer (pH 7.5), 10 mM magnesium chloride, 0.01% Triton X-100, 1 mM dithiothreitol, 1 μM FL-Peptide 22, 45 μM ATP, 1 nM BTK, and a titration of up to 10,000 nM test article in a final concentration of 0.5% (volume to volume [v/v]) DMSO. In the titration experiments, each of the test article concentrations (10 or 12 concentrations) was tested in duplicate. Blank reactions contained ATP, peptide, and DMSO, but no BTK or test article, whereas uninhibited control reactions contained ATP, peptide, BTK, and DMSO, but no test article.
# Reactions were incubated for 30 minutes at room temperature (22° C.-23° C.) in a final volume of 20 μL per well in 384-well plates. Ten microliters of BTK plus peptide mixture were added to 10 μL of a mixture of ATP and test article (or vehicle) to initiate the reactions. Reactions were stopped by adding 10 μL of 0.25 M ethylenediaminetetraacetic acid (EDTA) at pH 8.0 to each well. In each reaction, the residual FL-Peptide 22 substrate (S) and the phospho-peptide product (P) generated were separated using the LabChip 3000 instrument. Electrophoretic separation of molecules of product from molecules of substrate was achieved using downstream and upstream voltages of −500 and −2250 V, respectively, at an operating pressure of −1 psi. The 5-FAM group present on both the substrate and product peptides was excited at 488 nm; the fluorescence at 530 nm was detected and the peak heights were reported.
# Data Analysis: The extent (or percent) of conversion of substrate to product was calculated from the corresponding peak heights in the electropherogram using HTS Well Analyzer software, version 5.2 (PerkinElmer) and the following equation: conversion=[(P)÷(S+P)]×100 where S and P represent the peak heights of the substrate and product, respectively. After any baseline signal from blank wells containing no BTK was subtracted from the signal of all test wells, the % conversion data were converted to fractional activity as shown in Equation 2, where vi and vo are the % conversion in the presence and absence, respectively, of test article. The % conversion observed in the uninhibited control reaction wells containing BTK and DMSO vehicle, but no test article, was defined to have fractional activity=1 (in this case with no test article present, vi=vo), whereas blank wells with no BTK were defined as having fractional activity=0. Fractional activity was plotted against test article concentration and the data were fit using Genedata Screener software (Genedata; Basel, Switzerland) to the tight-binding apparent inhibition constant (Ki^app) Morrison equation [Williams, J. W. and Morrison, J. F. (1979) The kinetics of reversible tight-binding inhibition. Methods Enzymol 63:437-67]. The following equation was used to calculate fractional activity and Ki^app:
# [formula] where [E]T and [I]T are the total concentrations of active enzyme (fixed value of 0.001 μM=1 nM) and test article (e.g., inhibitor; the varied parameter), respectively.
# Sequence of BTK (Q06187 whole entry): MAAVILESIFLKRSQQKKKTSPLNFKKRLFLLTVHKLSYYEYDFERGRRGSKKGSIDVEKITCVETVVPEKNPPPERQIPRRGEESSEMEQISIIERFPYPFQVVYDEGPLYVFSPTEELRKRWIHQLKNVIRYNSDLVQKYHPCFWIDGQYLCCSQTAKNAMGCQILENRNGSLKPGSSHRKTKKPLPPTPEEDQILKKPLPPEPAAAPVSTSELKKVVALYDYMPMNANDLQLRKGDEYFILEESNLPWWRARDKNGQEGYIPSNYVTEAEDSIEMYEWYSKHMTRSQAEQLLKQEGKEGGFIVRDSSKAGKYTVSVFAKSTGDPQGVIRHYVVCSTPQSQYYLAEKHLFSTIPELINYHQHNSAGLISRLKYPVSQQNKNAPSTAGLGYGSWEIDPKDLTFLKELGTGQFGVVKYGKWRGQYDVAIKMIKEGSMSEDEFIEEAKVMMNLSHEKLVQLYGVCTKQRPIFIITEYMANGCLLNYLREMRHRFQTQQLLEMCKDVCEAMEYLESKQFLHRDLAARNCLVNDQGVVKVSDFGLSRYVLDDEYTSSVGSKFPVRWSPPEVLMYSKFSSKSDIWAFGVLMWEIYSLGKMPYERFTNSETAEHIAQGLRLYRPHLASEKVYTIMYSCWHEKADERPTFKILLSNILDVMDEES
row,Structure (SMILES),Ki [nM]
1,"C=CC(=O)N[C@@H](C)COc1cccc(Nc2cc(-c3ccnc(N4CCn5c(cc6c5CC(C)(C)C6)C4=O)c3CO)cn(C)c2=O)n1 [Compound 107, N-[(1S)-2-[[6-[[5-[2-(7,7-dimethyl-4-oxo-1,2,6,8-tetrahydrocyclopenta[3,4]pyrrolo[3,5-b]pyrazin-3-yl)-3-(hydroxymethyl)-4-pyridyl]-1-methyl-2-oxo-3-pyridyl]amino]-2-pyridyl]oxy]-1-methyl-ethyl]prop-2-enamide]",0.612
2,"C=CC(=O)N(C)CCOc1cccc(Nc2cc(-c3ccnc(N4CCn5c(cc6c5CC(C)(C)C6)C4=O)c3CO)cn(C)c2=O)n1 [Compound 112, N-[2-[[6-[[5-[2-(7,7-dimethyl-4-oxo-1,2,6,8-tetrahydrocyclopenta[3,4]pyrrolo[3,5-b]pyrazin-3-yl)-3-(hydroxymethyl)-4-pyridyl]-1-methyl-2-oxo-3-pyridyl]amino]-2-pyridyl]oxy]ethyl]-N-methyl-prop-2-enamide]",1.75
3,"C=CC(=O)NCCN(C)c1cccc(Nc2cc(-c3cc(F)cc(-n4ncc5c6c(sc5c4=O)CCCC6)c3CO)cn(C)c2=O)n1 [Compound 111, N-[2-[[6-[[5-[5-fluoro-2-(hydroxymethyl)-3-(4-oxo-6,7,8,9-tetrahydrobenzothiopheno[2,3-d]pyridazin-3-yl)phenyl]-1-methyl-2-oxo-3-pyridyl]amino]-2-pyridyl]-methyl-amino]ethyl]prop-2-enamide]",0.494
4,"C=CC(=O)NCCNc1cccc(Nc2cc(-c3cc(F)cc(-n4ncc5c6c(sc5c4=O)CCCC6)c3CO)cn(C)c2=O)n1 [Compound 105, N-[2-[[6-[[5-[5-fluoro-2-(hydroxymethyl)-3-(4-oxo-6,7,8,9-tetrahydrobenzothiopheno[2,3-d]pyridazin-3-yl)phenyl]-1-methyl-2-oxo-3-pyridyl]amino]-2-pyridyl]amino]ethyl]prop-2-enamide]",0.248
5,"CCC(=O)NCCOc1cccc(Nc2cc(-c3ccnc(N4CCn5c(cc6c5CC(C)(C)C6)C4=O)c3CO)cn(C)c2=O)n1 [Compound 119, N-{2-[(6-{[5-(2-{4,4-dimethyl-9-oxo-1,10-diazatricyclo[6.4.0.0^2,6]dodeca-2(6),7-dien-10-yl}-3-(hydroxymethyl)pyridin-4-yl)-1-methyl-2-oxo-1,2-dihydropyridin-3-yl]amino}pyridin-2-yl)oxy]ethyl}propanamide]",0.963
6,"C=CC(=O)N(C)CCOc1cccc(Nc2cc(-c3cc(F)cc(-n4ncc5c6c(sc5c4=O)CCCC6)c3CO)cn(C)c2=O)n1 [Compound 113, N-[2-[[6-[[5-[5-fluoro-2-(hydroxymethyl)-3-(4-oxo-6,7,8,9-tetrahydrobenzothiopheno[2,3-d]pyridazin-3-yl)phenyl]-1-methyl-2-oxo-3-pyridyl]amino]-2-pyridyl]oxy]ethyl]-N-methyl-prop-2-enamide]",0.146
7,"C=CC(=O)NCCOc1cccc(Nc2cc(-c3ccnc(N4CCn5c(cc6c5CC(C)(C)C6)C4=O)c3CO)cn(C)c2=O)n1 [Compound 101, N-{2-[(6-{[5-(2-{4,4-dimethyl-9-oxo-1,10-diazatricyclo[6.4.0.0^2,6]dodeca-2(6),7-dien-10-yl}-3-(hydroxymethyl)pyridin-4-yl)-1-methyl-2-oxo-1,2-dihydropyridin-3-yl]amino}pyridin-2-yl)oxy]ethyl}prop-2-enamide]",0.792
8,"C=CC(=O)N[C@H]1CCCN(c2cccc(Nc3cc(-c4cc(F)cc(-n5ncc6c7c(sc6c5=O)CCCC7)c4CO)cn(C)c3=O)n2)C1 [Compound 115, N-[(3S)-1-[6-[[5-[5-fluoro-2-(hydroxymethyl)-3-(4-oxo-6,7,8,9-tetrahydrobenzothiopheno[2,3-d]pyridazin-3-yl)phenyl]-1-methyl-2-oxo-3-pyridyl]amino]-2-pyridyl]-3-piperidyl]prop-2-enamide]",2.16
9,"Cn1cc(-c2ccnc(N3CCn4c(cc5c4CC(C)(C)C5)C3=O)c2CO)cc(Nc2ccnc(N3CCC(C(=O)NCC#N)C3)n2)c1=O (stereo not shown) [Compound 102, N-(cyanomethyl)-1-(4-{[5-(2-{4,4-dimethyl-9-oxo-1,10-diazatricyclo[6.4.0.0^2,6]dodeca-2(6),7-dien-10-yl}-3-(hydroxymethyl)pyridin-4-yl)-1-methyl-2-oxo-1,2-dihydropyridin-3-yl]amino}pyrimidin-2-yl)pyrrolidine-3-carboxamide]",0.864
10,"C=C(C#N)C(=O)NCCOc1cccc(Nc2cc(-c3cc(F)cc(-n4ncc5c6c(sc5c4=O)CCCC6)c3CO)cn(C)c2=O)n1 [Compound 117, 2-cyano-N-[2-[[6-[[5-[5-fluoro-2-(hydroxymethyl)-3-(4-oxo-6,7,8,9-tetrahydrobenzothiopheno[2,3-d]pyridazin-3-yl)phenyl]-1-methyl-2-oxo-3-pyridyl]amino]-2-pyridyl]oxy]ethyl]prop-2-enamide]",0.576
11,"C=CC(=O)NCCOc1cccc(Nc2cc(-c3ccnc(-n4ncc5cc(C(C)(C)C)cc(F)c5c4=O)c3CO)cn(C)c2=O)n1 [Compound 104, N-[2-[[6-[[5-[2-(6-tert-butyl-8-fluoro-1-oxo-phthalazin-2-yl)-3-(hydroxymethyl)-4-pyridyl]-1-methyl-2-oxo-3-pyridyl]amino]-2-pyridyl]oxy]ethyl]prop-2-enamide]",0.915
12,"CC#CC(=O)NCCOc1cccc(Nc2cc(-c3cc(F)cc(-n4ncc5c6c(sc5c4=O)CCCC6)c3CO)cn(C)c2=O)n1 [Compound 106, N-[2-[[6-[[5-[5-fluoro-2-(hydroxymethyl)-3-(4-oxo-6,7,8,9-tetrahydrobenzothiopheno[2,3-d]pyridazin-3-yl)phenyl]-1-methyl-2-oxo-3-pyridyl]amino]-2-pyridyl]oxy]ethyl]but-2-ynamide]",0.306
13,"C=CC(=O)N[C@@H](C)COc1cccc(Nc2cc(-c3cc(F)cc(-n4ncc5c6c(sc5c4=O)CCCC6)c3CO)cn(C)c2=O)n1 [Compound 108, N-[(1S)-2-[[6-[[5-[5-fluoro-2-(hydroxymethyl)-3-(4-oxo-6,7,8,9-tetrahydrobenzothiopheno[2,3-d]pyridazin-3-yl)phenyl]-1-methyl-2-oxo-3-pyridyl]amino]-2-pyridyl]oxy]-1-methyl-ethyl]prop-2-enamide]",2.57
